# Data reported in ChEMBL document CHEMBL1201862, “PubChem BioAssay data set” (2004).
#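 Cells were grown in 96-well plates and exposed to each compound for 48 hours at five concentrations; endpoints were interpolated linearly between bracketing concentrations, or set to the highest concentration if not reached. At the GI50, growth is halved.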 Active and inactive are the calls of the source. Rule as the data show it: active = GI50 up to about 1.1 µM and inactive = higher.
# What was measured:
# Test in all cases: inhibition of tumour cell growth, NCI panel, 48 h
# A498 = system: A498
# ACHN = system: ACHN
# CAKI-1 = system: CAKI-1
# HCT-116 = system: HCT-116
# HL-60 = system: HL-60
# IGROV-1 = system: IGROV-1
# K562 = system: K562
# LOX IMVI = system: LOX IMVI
# NCI-H23 = system: NCI-H23
# NCI-H460 = system: NCI-H460
# OVCAR-4 = system: OVCAR-4
# RPMI-8226 = system: RPMI-8226
# SK-MEL-28 = system: SK-MEL-28
# SK-MEL-5 = system: SK-MEL-5
# SN12C = system: SN12C
# SW-620 = system: SW-620
# TK-10 = system: TK-10
# NCI-H522 = system: NCI-H522
Compound,GI50 (A498),GI50 (ACHN),GI50 (CAKI-1),GI50 (HCT-116),GI50 (HL-60),GI50 (IGROV-1),GI50 (K562),GI50 (LOX IMVI),GI50 (NCI-H23),GI50 (NCI-H460),GI50 (OVCAR-4),GI50 (RPMI-8226),GI50 (SK-MEL-28),GI50 (SK-MEL-5),GI50 (SN12C),GI50 (SW-620),GI50 (TK-10),GI50 (NCI-H522)
COc1ccccc1NC(=O)C1=C(C)NC(C)=C(C(=O)Nc2ccccc2OC)C1/C=C/c1ccccc1,> 100 µM (inactive),90.8 µM (inactive),> 100 µM (inactive),48.3 µM (inactive),60.1 µM (inactive),> 100 µM (inactive),50.2 µM (inactive),> 100 µM (inactive),> 100 µM (inactive),> 100 µM (inactive),20.1 µM (inactive),55.3 µM (inactive),> 100 µM (inactive),> 100 µM (inactive),> 100 µM (inactive),> 100 µM (inactive),> 100 µM (inactive),–
Cc1nc(=O)n2c(C)n[nH]c2c1C(=O)Nc1cc(Cl)cc(Cl)c1,–,20 µM (inactive),36.9 µM (inactive),27.5 µM (inactive),20.1 µM (inactive),24.5 µM (inactive),23.8 µM (inactive),36.2 µM (inactive),24.6 µM (inactive),26.9 µM (inactive),29.2 µM (inactive),9.91 µM (inactive),26.1 µM (inactive),16.1 µM (inactive),15.9 µM (inactive),41.5 µM (inactive),19.8 µM (inactive),6.01 µM (inactive)
OCCC1(O)CCC(O)CC1 (stereo not drawn),> 100 µM (inactive),–,–,> 100 µM (inactive),> 100 µM (inactive),> 100 µM (inactive),> 100 µM (inactive),> 100 µM (inactive),> 100 µM (inactive),> 100 µM (inactive),> 100 µM (inactive),> 100 µM (inactive),> 100 µM (inactive),> 100 µM (inactive),–,> 100 µM (inactive),> 100 µM (inactive),> 100 µM (inactive)
O=C(CC(=O)N1N=C(n2ccc3ccccc32)CC1c1ccccc1)Nc1ccc(Cl)cc1 (stereo not drawn),> 100 µM (inactive),> 100 µM (inactive),–,> 100 µM (inactive),> 100 µM (inactive),> 100 µM (inactive),> 100 µM (inactive),> 100 µM (inactive),> 100 µM (inactive),> 100 µM (inactive),> 100 µM (inactive),52.1 µM (inactive),> 100 µM (inactive),–,> 100 µM (inactive),> 100 µM (inactive),> 100 µM (inactive),> 100 µM (inactive)
CC1CCC23COC(=O)C2C(O)CCC3C1(C)CC(O)c1ccoc1 (stereo not drawn),> 100 µM (inactive),> 100 µM (inactive),–,> 100 µM (inactive),–,> 100 µM (inactive),> 100 µM (inactive),> 100 µM (inactive),> 100 µM (inactive),> 100 µM (inactive),> 100 µM (inactive),–,> 100 µM (inactive),> 100 µM (inactive),> 100 µM (inactive),> 100 µM (inactive),> 100 µM (inactive),> 100 µM (inactive)
COc1cccc2c1C(=O)c1c(O)c3c(c(O)c1C2=O)C[C@@](O)(C(=O)CO)CC3OC1CC(N(C)CCOCC(OC(C)=O)OC(C)=O)C(O)C(C)O1 (stereo partly drawn),–,> 0.01 µM (active),> 0.01 µM (active),–,> 0.01 µM (active),> 0.01 µM (active),> 0.01 µM (active),> 0.01 µM (active),> 0.01 µM (active),> 0.01 µM (active),> 0.01 µM (active),> 0.01 µM (active),> 0.01 µM (active),> 0.01 µM (active),> 0.01 µM (active),> 0.01 µM (active),> 0.01 µM (active),> 0.01 µM (active)
CC(O)(c1ccc(OCCC[N+](C)(C)C)cc1)C(C)(O)c1ccc(OCCC[N+](C)(C)C)cc1 (stereo not drawn),> 100 µM (inactive),> 100 µM (inactive),> 100 µM (inactive),> 100 µM (inactive),> 100 µM (inactive),> 100 µM (inactive),> 100 µM (inactive),> 100 µM (inactive),> 100 µM (inactive),> 100 µM (inactive),> 100 µM (inactive),–,> 100 µM (inactive),–,> 100 µM (inactive),> 100 µM (inactive),–,> 100 µM (inactive)
COc1cc(C2Oc3cc(-c4oc5cc(O)cc(O)c5c(=O)c4O)ccc3OC2CO)ccc1O (stereo not drawn) [DEHYDROSILYLBIN],9.27 µM (inactive),7.64 µM (inactive),14 µM (inactive),4.71 µM (inactive),9.48 µM (inactive),10.9 µM (inactive),11 µM (inactive),–,4.3 µM (inactive),3.72 µM (inactive),20.7 µM (inactive),4.41 µM (inactive),10.1 µM (inactive),15.4 µM (inactive),10.8 µM (inactive),8.55 µM (inactive),10.9 µM (inactive),3.03 µM (inactive)
